# Reference: patent US7244727B2, “Fused bicyclic nitrogen-containing heterocycles” (Japan Tobacco Inc., priority 2002, dated 2007)
# pIC50: −log10 of the molar value.
# Experiments:
# [1] = biological target: T1, human DGAT1 (Homo sapiens, UniProt O75907); assay: DGAT Scintillation Proximity Assay (SPA) with membranes of insect cells expressing human flagtag DGAT1; assay type: biochemical; conditions: read-out: hDGAT1 IC50
# T1 construct: made in house; host or cells: insect cells (sf9, sf21 or High Five) infected with baculovirus; total cell membranes
# T1 sequence (O75907 1-488): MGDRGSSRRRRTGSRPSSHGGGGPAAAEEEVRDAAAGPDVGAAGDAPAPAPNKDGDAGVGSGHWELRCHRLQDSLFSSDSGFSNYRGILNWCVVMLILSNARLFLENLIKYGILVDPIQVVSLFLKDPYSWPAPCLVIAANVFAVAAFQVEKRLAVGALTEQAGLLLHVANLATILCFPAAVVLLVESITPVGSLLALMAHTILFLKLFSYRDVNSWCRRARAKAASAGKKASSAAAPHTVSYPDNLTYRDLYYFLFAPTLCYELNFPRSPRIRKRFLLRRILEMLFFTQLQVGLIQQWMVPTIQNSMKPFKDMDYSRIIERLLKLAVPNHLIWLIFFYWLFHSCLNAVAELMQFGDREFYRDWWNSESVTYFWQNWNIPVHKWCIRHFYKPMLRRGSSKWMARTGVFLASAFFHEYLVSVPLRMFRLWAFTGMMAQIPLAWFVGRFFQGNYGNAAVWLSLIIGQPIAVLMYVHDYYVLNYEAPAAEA
# In short: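 Membranes (0.2 μg/well) from insect cells expressing human flag-tagged DGAT1 incubated with 10 μM compound and 200 μM dioleoyl glycerol substrate; mercuric chloride as inhibition control. Reaction stopped with WGA SPA beads in mercuric chloride, overnight bead coupling, then scintillation proximity signal read.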
structure (smiles),measurement,setting,value
Cc1nc(N)c2c(n1)OC(C)(C)C(c1ccc([C@H]3CC[C@H](CNC(=O)CCO)CC3)cc1)=N2 [Example 2-140],pIC50,[1],7.00 to 8.00
same,melting point,,223 to 224 °C
Cc1nc(N)c2c(n1)OC(C)(C)C(c1ccc([C@H]3CC[C@H](CCNC(=O)C(C)(C)O)CC3)cc1)=N2 [Example 2-141],pIC50,[1],7.00 to 8.00
same,melting point,,221 to 223 °C
Cc1nc(N)c2c(n1)OC(C)(C)C(c1ccc([C@H]3CC[C@H](CC(=O)NCC(N)=O)CC3)cc1)=N2 [Example 2-142],pIC50,[1],7.00 to 8.00
same,melting point,,142 to 144 °C
Cc1nc(N)c2c(n1)OC(C)(C)C(c1ccc([C@H]3CC[C@H](CC(=O)N(C)CC(=O)O)CC3)cc1)=N2 [Example 2-143],pIC50,[1],> 8.00
same,melting point,,196 to 198 °C
Cc1nc(N)c2c(n1)OC(C)(C)C(c1ccc([C@H]3CC[C@H](CC(=O)N(C)CC(N)=O)CC3)cc1)=N2 [Example 2-144],pIC50,[1],7.00 to 8.00
same,melting point,,> 230 °C
Cc1nc(N)c2c(n1)OC(C)(C)C(c1ccc(C3CC(CC(=O)O)C3(C)C)cc1)=N2 (stereo not drawn) [Example 2-145],pIC50,[1],7.00 to 8.00
same,melting point,,> 250 °C
Cc1nc(N)c2c(n1)OC(C)(C)C(c1ccc(C3CC(CC(=O)O)C3)cc1)=N2 (stereo not drawn) [Example 2-146],pIC50,[1],7.00 to 8.00
same,melting point,,> 250 °C
Cc1nc(N)c2c(n1)OC(C)(C)C(c1ccc([C@H]3CC[C@H](Cc4n[nH]c(=O)[nH]4)CC3)cc1)=N2 [Example 2-147],pIC50,[1],7.00 to 8.00
same,melting point,,> 230 °C
Cc1nc(N)c2c(n1)OC(C)(C)C(c1ccc([C@H]3CC[C@H](CC(=O)Cc4nn[nH]n4)CC3)cc1)=N2 [Example 2-148],pIC50,[1],> 8.00
same,melting point,,> 250 °C
Cc1nc(N)c2c(n1)OC(C)(C)C(c1ccc(C3CC(CCC(=O)O)C3)cc1)=N2 (stereo not drawn) [Example 2-149],pIC50,[1],7.00 to 8.00
same,melting point,,237 to 238 °C
Cc1nc(N)c2c(n1)OC(C)(C)C(c1ccc([C@H]3CC[C@H](CNC(=O)C(C)(C)O)CC3)cc1)=N2 [Example 2-150],pIC50,[1],7.00 to 8.00
same,melting point,,228 to 229 °C
Cc1nc(N)c2c(n1)OC(C)(C)C(c1ccc([C@H]3CC[C@H](Cc4nc(=O)o[nH]4)CC3)cc1)=N2 [Example 2-151],pIC50,[1],> 8.00
same,melting point,,> 250 °C
Cc1nc(N)c2c(n1)OC(C)(C)C(c1ccc([C@H]3CC[C@H](Cc4nc(=O)s[nH]4)CC3)cc1)=N2 [Example 2-152],pIC50,[1],7.00 to 8.00
same,melting point,,225 to 226 °C
CC1(C)Oc2nc(C(F)(F)F)nc(N)c2N=C1c1ccc([C@H]2CC[C@H](CNC(=O)CO)CC2)cc1 [Example 2-154],pIC50,[1],7.00 to 8.00
same,melting point,,229 to 233 °C
CCn1c(C[C@H]2CC[C@H](c3ccc(C4=Nc5c(N)nc(C)nc5OC4(C)C)cc3)CC2)n[nH]c1=O [Example 2-156],pIC50,[1],7.00 to 8.00
same,melting point,,> 250 °C
Cc1nc(N)c2c(n1)OC(C)(C)C(c1ccc([C@H]3CC[C@H](CN4CCOC4=O)CC3)cc1)=N2 [Example 2-158],pIC50,[1],7.00 to 8.00
same,melting point,,240 to 241 °C
Cc1nc(N)c2c(n1)OC(C)(C)C(c1ccc([C@H]3CC[C@H](CN4CC(=O)NC4=O)CC3)cc1)=N2 [Example 2-159],pIC50,[1],7.00 to 8.00
same,melting point,,148 °C (dec.)
Cc1nc(N)c2c(n1)OC(C)(C)C(c1ccc([C@H]3CC[C@H](CCNC(=O)CO)CC3)cc1)=N2 [Example 2-160],pIC50,[1],7.00 to 8.00
same,melting point,,185 to 186 °C
Cc1nc(N)c2c(n1)OC(C)(C)C(c1ccc([C@H]3CC[C@H](CNC(N)=O)CC3)cc1)=N2 [Example 2-161],pIC50,[1],7.00 to 8.00
same,melting point,,219 to 221 °C
Cc1nc(N)c2c(n1)OC(C)(C)C(c1ccc([C@H]3CC[C@H](CNC4=NCCO4)CC3)cc1)=N2 [Example 2-162],pIC50,[1],7.00 to 8.00
same,melting point,,216 to 250 °C
Cc1nc(N)c2c(n1)OC(C)(C)C(c1ccc([C@H]3CC[C@H](CNC(=O)C(O)C(C)(C)CO)CC3)cc1)=N2 (stereo partly drawn) [Example 2-163],pIC50,[1],7.00 to 8.00
same,melting point,,219 to 221 °C
Cc1nc(N)c2c(n1)OC(C)(C)C(c1ccc([C@H]3CC[C@H](CNC(=O)C(O)CCO)CC3)cc1)=N2 (stereo partly drawn) [Example 2-164],pIC50,[1],7.00 to 8.00
same,melting point,,222 to 225 °C
Cc1nc(N)c2c(n1)OC(C)(C)C(c1ccc([C@H]3CC[C@H](Cc4cc(O)n(C)n4)CC3)cc1)=N2 [Example 2-165],pIC50,[1],7.00 to 8.00
same,melting point,,> 250 °C
Cc1nc(N)c2c(n1)OC(C)(C)C(c1ccc([C@H]3CC[C@H](CN4CCC(O)C4=O)CC3)cc1)=N2 (stereo partly drawn) [Example 2-166],pIC50,[1],7.00 to 8.00
same,melting point,,225 to 233 °C
Cc1nc(N)c2c(n1)OC(C)(C)C(c1ccc([C@H]3CC[C@H](Cc4nc(=O)[nH]n4C)CC3)cc1)=N2 [Example 2-169],pIC50,[1],7.00 to 8.00
same,melting point,,> 230 °C
CC1(C)Oc2ncnc(N)c2N=C1c1ccc([C@H]2CC[C@H](CCc3cc(O)[nH]n3)CC2)cc1 [Example 2-172],pIC50,[1],7.00 to 8.00
same,melting point,,> 250 °C
CC1(C)Oc2ncnc(N)c2N=C1c1ccc([C@H]2CC[C@H](CCNS(C)(=O)=O)CC2)cc1 [Example 2-173],pIC50,[1],7.00 to 8.00
same,melting point,,218 to 219 °C
CC(=O)NCC[C@H]1CC[C@H](c2ccc(C3=Nc4c(N)ncnc4OC3(C)C)cc2)CC1 [Example 2-174],pIC50,[1],7.00 to 8.00
same,melting point,,238 to 239 °C
Cc1ccc(S(=O)(=O)NCC[C@H]2CC[C@H](c3ccc(C4=Nc5c(N)ncnc5OC4(C)C)cc3)CC2)cc1 [Example 2-175],pIC50,[1],7.00 to 8.00
same,melting point,,230 to 231 °C
CC1(C)Oc2ncnc(N)c2N=C1c1ccc([C@H]2CC[C@H](CCNC(=O)CO)CC2)cc1 [Example 2-176],pIC50,[1],7.00 to 8.00
same,melting point,,196 to 198 °C
CCCNC(=O)CC[C@H]1CC[C@H](c2ccc(C3=Nc4c(N)ncnc4OC3(C)C)cc2)CC1 [Example 2-177],pIC50,[1],7.00 to 8.00
same,melting point,,198 to 200 °C
CC1(C)Oc2ncnc(N)c2N=C1c1ccc([C@H]2CC[C@H](CCC(=O)N3CCC[C@H]3CO)CC2)cc1 [Example 2-178],pIC50,[1],7.00 to 8.00
same,melting point,,143 to 160 °C
CN(CCO)C(=O)CC[C@H]1CC[C@H](c2ccc(C3=Nc4c(N)ncnc4OC3(C)C)cc2)CC1 [Example 2-179],pIC50,[1],7.00 to 8.00
same,melting point,,168 to 170 °C
CC1(C)Oc2ncnc(N)c2N=C1c1ccc([C@H]2CC[C@H](CCC(=O)N3CCC(O)CC3)CC2)cc1 [Example 2-180],pIC50,[1],7.00 to 8.00
same,melting point,,200 to 202 °C
CC1(C)Oc2ncnc(N)c2N=C1c1ccc([C@H]2CC[C@H](CCNC(=O)[C@@H]3CCCN3)CC2)cc1 [Example 2-182],pIC50,[1],7.00 to 8.00
same,melting point,,167 to 169 °C
CC1(C)Oc2ncnc(N)c2N=C1c1ccc([C@H]2CC[C@H](CCNC(=O)[C@@H]3C[C@@H](O)CN3)CC2)cc1 [Example 2-183],pIC50,[1],7.00 to 8.00
same,melting point,,201 to 203 °C
Cc1csc(NCC[C@H]2CC[C@H](c3ccc(C4=Nc5c(N)ncnc5OC4(C)C)cc3)CC2)n1 [Example 2-184],pIC50,[1],7.00 to 8.00
same,melting point,,> 250 °C
Cc1ncc(CC[C@H]2CC[C@H](c3ccc(C4=Nc5c(N)ncnc5OC4(C)C)cc3)CC2)[nH]1 [Example 2-185],pIC50,[1],7.00 to 8.00
same,melting point,,193 to 194 °C
CN(C)C(=O)CC[C@H]1CC[C@H](c2ccc(C3=Nc4c(N)ncnc4OC3(C)C)cc2)CC1 [Example 2-186],pIC50,[1],7.00 to 8.00
same,melting point,,200 to 201 °C
CC(C)NC(=O)CC[C@H]1CC[C@H](c2ccc(C3=Nc4c(N)ncnc4OC3(C)C)cc2)CC1 [Example 2-187],pIC50,[1],> 8.00
same,melting point,,206 to 208 °C
CCN(C)C(=O)CC[C@H]1CC[C@H](c2ccc(C3=Nc4c(N)ncnc4OC3(C)C)cc2)CC1 [Example 2-188],pIC50,[1],7.00 to 8.00
same,melting point,,173 to 175 °C
CCN(CC)C(=O)CC[C@H]1CC[C@H](c2ccc(C3=Nc4c(N)ncnc4OC3(C)C)cc2)CC1 [Example 2-189],pIC50,[1],7.00 to 8.00
same,melting point,,192 to 194 °C
CCCN(C)C(=O)CC[C@H]1CC[C@H](c2ccc(C3=Nc4c(N)ncnc4OC3(C)C)cc2)CC1 [Example 2-190],pIC50,[1],7.00 to 8.00
same,melting point,,210 to 212 °C
Cc1nc(N)c2c(n1)OC(C)(C)C(c1ccc([C@H]3CC[C@H](CCC(=O)O)CC3)cc1)=N2 [Example 2-191],pIC50,[1],> 8.00
same,melting point,,> 250 °C
Cc1nc(N)c2c(n1)OC(C)(C)C(c1ccc([C@H]3CC[C@H](CCC(=O)NS(C)(=O)=O)CC3)cc1)=N2 [Example 2-192],pIC50,[1],> 8.00
same,melting point,,> 250 °C
Cc1nc(N)c2c(n1)OC(C)(C)C(c1ccc([C@H]3CC[C@H](CCC(=O)NC(C)(C)CO)CC3)cc1)=N2 [Example 2-193],pIC50,[1],7.00 to 8.00
same,melting point,,> 240 °C
Cc1nc(N)c2c(n1)OC(C)(C)C(c1ccc([C@H]3CC[C@H](CCC(=O)N4C[C@@H](O)[C@@H](O)C4)CC3)cc1)=N2 [Example 2-194],pIC50,[1],7.00 to 8.00
same,melting point,,230 to 231 °C
Cc1nc(N)c2c(n1)OC(C)(C)C(c1ccc([C@H]3CC[C@H](CCc4nc(=O)o[nH]4)CC3)cc1)=N2 [Example 2-195],pIC50,[1],7.00 to 8.00
same,melting point,,250 °C (dec.)
